Where two headings read alike, the source gives them in different places.
Tests used:
[1] = system: NCI-H460 (large cell lung carcinoma) cells; assay: Antiproliferation assay (CELLTITER 96 AQueous, 72 h); assay type: cell-based; conditions: Homo sapiens
Method: Bifidenone was tested for its ability to inhibit the proliferation of human cancer cells in vitro as described in the following paragraph. IC50 is defined as the concentration of compound necessary to achieve 50% of the maximum growth inhibition.
For the antiproliferation assay, NCI-H460 (large cell lung carcinoma) or M14 (amelanotic melanoma) cells were grown in RPMI-1640 with 10% FBS supplemented with L-glutamine and HEPES. Cells were seeded into 96-well plates at 5×10^2 to 5×10^4 cells/well and allowed to adhere overnight; the medium was then removed. A stock solution of test compound in DMSO was diluted in medium to generate a series of working solutions. Aliquots (100 μL) of the working solutions were then added to the appropriate test wells to expose cells to the final concentrations of compound in a total volume of 100 μL. Seven different concentrations were tested, with 2-5 wells per concentration. Camptothecin was used as a positive control; wells containing vehicle without compound were used as negative controls. Plates were kept for 72 h in a 37° C., 5% CO2 incubator. After incubation, viable cells were detected with the CELLTITER 96 AQueous Non-Radioactive Cell Proliferation Assay (Promega), and IC50 values were determined using GraphPad Prism 5 software.

tubulin = assay: In vitro tubulin polymerization assay; assay type: biochemical; conditions: absorbance readout, FIG. 3
Method: To test the hypothesis that bifidenone inhibits cell proliferation by interfering with microtubule dynamics, it was tested in an in vitro tubulin polymerization assay. FIG. 3 illustrates inhibition of tubulin polymerization by bifidenone. Increased absorbance corresponds to increased polymerization.

[2] = system: NCI-H460 lung cancer cells; assay: Cell cycle analysis (propidium iodide, flow cytometry); assay type: cell-based, human; conditions: NCI-H460, 1, 2, or 3× the IC50 for 6, 18, or 24 h
Method: Antitubulin agents typically interfere with mitosis by disrupting the microtubule dynamics necessary for cell division. […] Cells were then treated with propidium iodide and analyzed using flow cytometry.

NCI-H460 cells = assay: Western blot analysis of G2/M markers; assay type: cell-based, human; conditions: NCI-H460, 21 h
Method: Nocodazole is known to cause G2/M arrest. Cell lysates were analyzed by western blot using the antibodies indicated on the left. Individual protein bands are designated on the right.

[3] = system: caspases 3 and 7 in NCI-H460 lung cancer cells; assay: Caspase 3/7 luminescent apoptosis assay; assay type: cell-based, human; conditions: NCI-H460, varying concentrations
Method: FIG. 6 illustrates Caspase assay. Enzyme activity of caspases 3 and 7 was determined using a luminescent assay. NCI-H460 lung cancer cells were treated with varying concentrations of bifidenone or the known antitubulin agents paclitaxel or colchicine. The readout of relative light units is proportional to total caspase 3 and 7 activity.

PARP and caspase-7 = assay: Western blot of PARP and caspase-7 cleavage; assay type: cell-based; conditions: FIG. 7
[4] = system: colchicine binding site of tubulin; assay: Ultrafiltration-based tubulin competition assay; conditions: free ligand by LC/MS
Description: (§1) In order to determine the binding site of bifidenone on tubulin, a published ultrafiltration-based competition assay was used. In this assay, tubulin is allowed to bind with a known ligand, and then free ligand is separated by ultrafiltration and analyzed by LC/MS. In the presence of a competitor, the concentration of free ligand increases. […] FIG. 8 illustrates tubulin competition assay. Each graph depicts the amount of unbound compound detected in the presence of varying concentrations of competitors. Known competitors were used as positive controls: podophyllotoxin for the colchicine site (left), vinblastine for the vincristine site (center), and docetaxel for the paclitaxel site (right). Amounts of free compound are expressed as percentages normalized to the amount of free compound detected in the presence of 100 μM known competitor.

[5] = system: paclitaxel binding site of tubulin; assay: Ultrafiltration-based tubulin competition assay; conditions: free ligand by LC/MS
Description: as §1

[6] = Mouse plasma concentration after IP injection; assay type: in vivo, mice
Method: The bioavailabilities of certain compounds were examined in mice. Administration of the compounds was performed by intraperitoneal (IP) injection using a vehicle as known to those skilled in the art. To measure compound concentrations in plasma, blood is collected by cardiac puncture at a specified time after dosing. It is then centrifuged in a plasma separator tube with NaEDTA/NaF as the anticoagulant, and the resulting plasma is stored at −80° C. For analysis, an internal standard is added to a 200 μL aliquot of plasma, and the aliquot is extracted with ethyl acetate. The ethyl acetate extract is analyzed by LC/MS and quantitated using a standard curve prepared by adding known amounts of test compound and internal standard to 200 μL aliquots of blank mouse plasma.
Many vehicles can be used to examine bioavailability. Prior to administration, each vehicle was optimized based on compound solubility according to the formulation research conducted by Uckun et at (Uckun, F. M., Tibbles, H., Erbeck, D., Venkatachalam, T. K., Qazi, S., 2007). In vivo pharmacokinetics and toxicity of a novel hydrophilic oral formulation of the potent non-nucleoside reverse transcriptase inhibitor compound N′-[2-(2-thiophene)ethyl]-N′-[2-(5-bromopyridyl)]-thiourea (HI-443). Arzneimittelforschung 57, 218-226.). […] The concentration of PEG400 is modulated depending upon solubility of the compounds and the amount of water phase added.
With larger injections (75-100 mg/kg), plasma concentrations were >4 times the IC50 at 6 h.

[7] = Epimerization by TFA in HPLC solvents; assay type: physicochemical; conditions: TFA (0.05%) in HPLC solvents
Method: To obtain additional bifidenone for antiproliferation assays, the remaining material from the Beilschmiedia specimen was fractionated. […] Consequently, future isolations were performed without TFA in the semipreparative steps. Ultimately, 79 μg of bifidenone was isolated.

## C=CC[C@H]1C[C@]2([C@@H](C)Cc3ccc(OC)c(OC)c3)OCOC2=CC1=O [bifidenone, (6S,7aR)-6-Allyl-7a-((S)-1-(3,4-dimethoxyphenyl)propan-2-yl)-7,7a-dihydrobenzo[d][1,3]dioxol-5(6H)-one]
[1]; NCI-H460, 72 h, read-out: IC50 against NCI-H460
  IC50: 360 nM
[1]; NCI-H460, as restated in Example VII, read-out: IC50 against NCI-H460 human lung cancer cells
  IC50: 360 nM
tubulin
  inhibition of tubulin polymerization: inhibits tubulin polymerization in a dose-dependent manner
[2]
  cell cycle effect: causes arrest in the G2/M phase of the cell cycle
NCI-H460 cells
  protein expression and phosphorylation patterns (Histone H3 Ser10, Myt1, Aurora A/B/C, cdc2 Tyr15): consistent with G2/M arrest
[3]
  apoptosis by enzymatic activity of caspases 3 and 7: undergo apoptosis
PARP and caspase-7
  cleavage of caspase-7 and PARP: cleavage of caspase-7 and PARP occurred
[4]
  competition for the colchicine binding site: competes for the colchicine binding site
[5]
  competition for the paclitaxel binding site: weakly for the paclitaxel binding site
[6]; initial formulation diluted with up to 20% water
  change of plasma concentration with vehicle: not diminished
[6]; mouse, plasma, 1 h post-injection, 40 mg/kg IP, vehicle 40% propylene glycol, 20% TWEEN-20, 20% PEG400, 20% ethanol
  concentration at 1 h: > 360 nM
[6]; propylene glycol decreased to 25%
  change of plasma levels with vehicle: diminished
[6]; propylene glycol increased to 45% and TWEEN-20 decreased to <3%
  change of plasma levels with vehicle: increased or were not diminished
[7]
  stability to TFA: prone to epimerization
